Laboratory results reported in US6841537B1, “Combination therapy using nucleic acids and conventional drugs” (Protiva Biotherapeutics Inc., priority 1998, dated 2005).

Tests used:
SK-OV-3 cells [1] = assay: Uptake of YOYO-1 labeled plasmid DNA lipoplexes by flow cytometry; type: cell-based, human; conditions: aphidicolin arrested vs control cells
Experimental: SK-OV-3 or HeLa-luc cells were seeded at a density of 30,000 cells per well in a 24 well plate in growth media 24 hours prior to treatment with aphidicolin. Aphidicolin (Sigma) was reconstituted in phosphate buffered saline containing 0.5% DMSO. Cells were incubated with aphidicolin at a final concentration of 5 μg/mL in 1 mL of media per well for 16 hours prior to transfection. Transfection was accomplished by the addition of 0.5 μg of formulated DNA to each well. […]
Lipoplexes were prepared using YOYO-1 labeled DNA and incubated with cells. […] Fluorescence was measured in the FL1 channel (λemission=530+/−15 nm) of a FACSort flow cytometer (Becton-Dickinson, San Jose, Calif.) equipped with an Ar- ion laser ([…]). Data was collected from 10,000 cells and analyzed for fluorescence using CellQuest software.
In order to determine whether aphidicolin treatment affects cellular processes related to transgene expression, effects on DNA uptake and gene expression were studied. It has been shown previously that fluorescently labeled DNA can be formulated as lipoplexes and the uptake of lipoplexes can be measured by flow cytometry (see, Zabner, et al., J. Biol. Chem., 270:18997-19007 (1995); and Tseng, et al., Biotechnol. Bioeng., 50:548-554 (1996);). […] The rate of lipoplex uptake per cell was determined by flow cytometry. […]

SK-OV-3 cells [2] = assay: Cell cycle arrest by aphidicolin, propidium iodide staining and flow cytometry; type: cell-based, human; conditions: (+/−) culture
Experimental: SK-OV-3 or HeLa-luc cells were seeded at a density of 30,000 cells per well in a 24 well plate in growth media 24 hours prior to treatment with aphidicolin. Aphidicolin (Sigma) was reconstituted in phosphate buffered saline containing 0.5% DMSO. Cells were incubated with aphidicolin at a final concentration of 5 μg/mL in 1 mL of media per well for 16 hours prior to transfection. Transfection was accomplished by the addition of 0.5 μg of formulated DNA to each well.
The cell cycle status of cultures was determined by flow cytometry of permeabilized cells that were stained with propidium iodide. Prior to harvesting, media was aspirated and the cells were washed twice with 2 mL phosphate buffered saline (PBS). […] 5,000 cells were analyzed in the FL2 channel (λemission=585+/−21 nm) of a FACSort flow cytometer (Becton-Dickinson, San Jose, Calif.) equipped with an Ar- ion laser (λexcitation=488 nm)
In an initial study, the effectiveness of a non-lethal concentration of aphidicholin to arrest SK-OV-3 cells was determined. A sub-confluent asynchronous cell culture contained approx. 75%, 5% and 20% of cells in G1, S and M phase, respectively, as measured by staining with propidium iodide (PI) followed by flow cytometry (FIG. 1(A)). […]

SK-OV-3 cells [3] = assay: Lipid mediated transfection (luciferase activity) in aphidicolin treated cells; type: cell-based, human
Experimental: Lipoplexes were prepared as follows: All reagents were sterile and cooled to 4° C. prior to complex preparation. A solution containing 62 μM dioleoyldimethylammonium chloride:1,2-sn-dioleoylphosphatidylethanolamine (DODAC:DOPE) large unilamellar vesicles (LUVs) and a solution containing 10 μg/mL plasmid DNA were prepared in distilled water. The DNA was added to an equal volume of lipid dropwise, while vortexing. The solution was incubated on ice for 30 minutes prior to transfection. The resulting lipoplexes contained a final DNA concentration of 0.5 μg/100 μL and the cationic lipid:DNA (+:−) charge ratio was 1:1.
Plasmid containing a therapeutic gene was encapsulated as SPLP using the detergent dialysis method of INEX 351. […]
(§1) Luciferase assays were performed using the Luciferase Assay System kit (Promega, Madison, Wis.) according to the manufacturer's protocol. […] A standard curve was determined by assaying 20 μL of serial dilutions of a 1 mg/mL luciferase standard (Boehringer Mannheim). […] Absorbance was monitored at 570 nm (Dynatech MR5000 plate reader) and protein content calculated using a standard curve of varying concentrations of BSA.
An initial experiment was performed to determine whether lipid mediated transfection was affected by the cell cycle status of SK-OV-3 cells in vitro. […] Luciferase activity was measured after 24 hrs of continuous exposure to lipoplexes. […]

HeLa-luc cells = assay: Effect of aphidicolin on constitutive CMV driven luciferase gene expression; type: cell-based, human; conditions: 0, 6 and 24 hours after arrest vs untreated control cells
Experimental: SK-OV-3 cells (human ovarian tumor cells, ATCC) were cultured in RPMI 1640 media (StemCell Technologies, Vancouver, B.C.) supplemented with 10% fetal bovine serum (Intergen). HeLa-luc cells were stably transfected with a luciferase reporter plasmid and cultured in Dulbecco's modified Eagle medium (StemCell Technologies, Vancouver, B.C.) supplemented with 10% fetal bovine serum and 400 μg/mL Geneticin (Gibco BRL). […]
as §1
To determine the effect of aphidicolin-mediated cell cycle arrest on the transcriptional and translational machinery of the cell, a clonal HeLa cell line stably transfected with a CMV driven luciferase expression cassette (Song, Inex Pharmaceuticals, unpublished) was analyzed. […]

MCA 207 tumor [4] = assay: Combination therapy: OncoTCS then i.v. INEX 303 with pINEX-TK10 plus ganciclovir, tumor size; type: in vivo, C57 BL/6 mice; conditions: subtherapeutic pretreatment (OncoTCS 0.5 mg/kg i.v.) before INEX 303 pINEX-TK10 i.v. and ganciclovir i.p.
Experimental: C57 BL/6 mice are seeded subcutaneously with MCA 207 tumor cells. Tumor seeding is performed by standard techniques. Mice are seeded subcutaneously on the hip flank with 100,000 MCA-207 fibrosarcoma tumor cells by […] injection on day zero. The tumor cells are cultivated and prepared according to standard techniques using RPMI media with 10% Fetal Bovine Serum (see, for example, Current Protocols in Molecular Biology, Eds. Ausubel, F. M., et al.)
At 8, 16, 24, 30, 36, 42 or […] after OncoTCS treatment, the mice are injected i.v. via tail vein with INEX 303 containing pINEX-TK10 prepared as described herein (100 μg DNA with about 500 μg lipid all in about 200 μL total volume). Control mice receive HBS.
1 mg ganciclovir, which is in 200 μL PBS (approximately 50 mg/kg; commercially available from Hoffman La Roche) is administered by intraperitoneal injection 12 h and 24 h after SPLP administration.

MCA 207 tumor [5] = assay: Combination therapy: OncoTCS then i.v. INEX 324 with pINEX-IL-12, tumor size; type: in vivo, C57 BL/6 mice; conditions: subtherapeutic dose (OncoTCS 0.5 mg/kg i.v.) before INEX 324 i.v. 100 μg DNA
Experimental: C57 BL/6 mice are seeded subcutaneously with MCA 207 tumor cells. Tumor seeding is performed by standard techniques. Mice were seeded subcutaneously on the hip flank with 100,000 MCA-207 fibrosarcoma tumor cells by sub-cutaneous injection on day zero.
On days 7-10, when tumors had developed to useable sizes, mice were injected i.v. via tail vein with approximately 0.5 mg/kg of OncoTCS (200 μL).
At 8, 16, 24, 30, 36, 42 or […] after OncoTCS treatment, the mice were injected i.v. via tail vein with INEX 324 (100 μg DNA pINEX-1L-12 with about 500 μg lipid all in about 200 μL total volume). Control mice received HBS.

B16 cells = assay: Luciferase activity in i.p. tumors after i.p. INEX 324 following OncoTCS; type: in vivo, C57 mice; conditions: OncoTCS 0.5 mg/kg i.v. 24 hours before INEX 324 i.p. 20 micrograms
Experimental: […] are seeded intraperitoneally with about 100,000 B16 cells. On day 7, 12 mice are injected i.v. via the tail vein with about 0.5 mg/kg of OncoTCS (vincristine sulfate encapsulated in sphingomyelin-containing TCS) in about 200 microliters. 12 control mice are not treated with OncoTCS. 24 hours later, all mice are injected i.p. with 20 micrograms of INEX 324 (TCS containing luciferase plasmid pINEX L018) in 500 microliters. Tumors are harvested 6, 12, 24 and 48 hours later, fast frozen, and stored at −70° C. until analyzed for luciferase activity. The frozen organs are then thawed at room temperature. 600 microliters of 1× cell culture lysis buffer (Promega) is added and the samples are homogenized in a FASTPREP homogenizer for 20 sec. at speed 4.0. The samples are centifuged for 2 min. at 10,000 g, and 20 microliters of the supernatant is assayed for luciferase activity.

Compound	effect of cell cycle arrest on internalization of lipoplexes (SK-OV-3 cells [1])	cells in the G2/M phase (SK-OV-3 cells [2]; 16 hrs after removal of aphidicolin block)	cells that had undergone mitotic division and progressed into the G1 phase (SK-OV-3 cells [2]; within 22 hrs after removal of aphidicolin block)	decrease in luciferase gene expression (SK-OV-3 cells [3]; (+/+) culture arrested in G1, 24 hrs continuous exposure to DODAC:DOPE lipoplexes, vs asynchronous control)	luciferase expression vs control asynchronous culture (SK-OV-3 cells [3]; (+/−) culture, 24 hrs exposure to lipoplexes)	effect on level of luciferase gene expression (HeLa-luc cells)	tumor growth vs HSV-TK/ganciclovir system alone (MCA 207 tumor [4])	effect on therapeutic effect of pINEX-IL-12 in INEX 324 (MCA 207 tumor [5])	transfection of tumors (B16 cells)
C[C@@]1(CO)[C@H](O)CC[C@@]2(C)[C@H]1CC[C@H]1C[C@@H]3C[C@@]12CC[C@]3(O)CO [aphidicolin, Aphidicolin]	does not affect the internalization of lipoplexes	approximately 85%	~45%	20 fold	did not differ significantly	did not significantly affect			
CC[C@]1(O)C[C@H]2CN(CCc3c([nH]c4ccccc34)[C@@](C(=O)OC)(c3cc4c(cc3OC)N(C=O)[C@H]3[C@@](O)(C(=O)OC)[C@H](OC(C)=O)[C@]5(CC)C=CCN6CC[C@]43[C@@H]65)C2)C1 [vincristine]							inhibits growth of tumors and promotes tumor regression to a significantly greater degree	greatly enhances the therapeutic effect	transfection of neoplastic sites
